Test results taken from US5527811A, “Isoquinolinyl compounds which are useful in treating cerebral vascular disorders” (Takeda Chemical Industries, Ltd., priority 1993, dated 1996).
Where a name gives a salt, the structure may show the parent alone. Read-outs that look alike come from different tables or passages of the source.

Experiments:
[1] = test system: transient cerebral ischemia in mongolian gerbils; assay: Protective effect of cerebralischemia: survival ratio after bilateral common carotid occlusion and reperfusion in gerbils; assay type: in vivo, mongolian gerbil; conditions: Meriones unguiculatus, ip; for responders at 5 mg/kg: read-out: Survival ratio
Procedure: Test Example 1 Protective effect of cerebralischemia
Male mongolian gerbils (Seiwa/8-10 wks) (n=8-10) were used. Bilateral common carotid arteries were occluded after the incision of the center of the neck under ether anesthesia. Global cerebral ischemia was induced by the occlusion of bilateral common carotid arteries (15 minutes), and after that these arteries were reperfused. Test sample was administered intraperiatonelly 30 minutes before occlusion and 90 minutes after reperfusion. In the control group, vehicle (distilled water, saline or 5% gum arabic) was administered in the same fashion. Survival ratio was estimated at 8 hr after reperfusion (Table 2).

[2] = test system: brain edema in male wistar rats; assay: Anti-brain edema effect (middle cerebral arterial occlusion and reperfusion model); assay type: in vivo, rat (wistar); conditions: 10 mg/kg(ip) × 7, rat, 3rd day after reperfusion, * p < 0.05
From the text: Test Example 2 Anti-brain edema effect (middle cerebral arterial occlusion and reperfusion model)
Male wistar rats (Jcl:9wks) were anesthetized with inhalation of halothane (2-bromo-2-chloro-1,1,1-trifluoroethane). After the incision of neck, bilateral common carotid arteries were […] an embolized needle (diameter 0.3 mm, length 26 mm nylon thread) was inserted into the left internal carotid artery through external carotid artery and, simultaneously, the bilateral common carotid arteries were occluded by the Sugita's aneurysm clips. The embolized needle and the clips were removed out 30 minutes after occlusion. Test sample was administered immediately and 5 hr after reperfusion on the operated day, twice a day on the 1st and 2nd day, and 1 hr before removing the brain on the 3rd day (total 7 times), intraperiatonelly. In the control group, vehicle (distilled water, saline or 5% gum arabic) was administered in the same fasion. Brain edema on the 3rd day after reperfusion was estimated from the content of water, potassium and sodium in cerebral cortex and striatum. Water content was calculated from the ratio of dried brain weight and wet brain weight [(1-dried weight/wet weight)×100%]. The contents of pottasium and sodium were measured using the solution extracted from dried brain tissue with 14% nitric acid by the method of the framephotometer (Table 3).

[3] = 5 mg/kg, 30 min before occlusion and 90 min after reperfusion, estimated 8 hr after reperfusion, control 0
[4] = 30 min before occlusion and 90 min after reperfusion, estimated 8 hr after reperfusion, control 0

With `Cn1c(CNC(=O)Cc2cccc(C(=O)O)c2)c(-c2ccccc2)c2cc(Cl)ccc2c1=O` [28 (Na), N-(6-Chloro-1,2-dihydro-2-methyl-1-oxo-4-phenylisoquinolin-3-yl)methyl-α-(3-carboxyphenyl)acetamide sodium salt] the responders at 5 mg/kg ([1]; 8 h) was 75%.

`CN(C)CCOc1cccc(NC(=O)NCc2c(-c3ccccc3)c3cc(Cl)ccc3c(=O)n2C)c1` [45 (HCl), N-[(6-Chloro-1,2-dihydro-2-methyl-1-oxo-4-phenylisoquinolin-3-yl)methyl]-N'-{3-[2-(dimethylamino)ethoxy]phenyl}urea] showed a responders at 5 mg/kg [1, 3] of 82%.

`Cn1c(CNC(=O)Nc2cccc(C(=O)O)c2)c(-c2ccccc2)c2cc(Cl)ccc2c1=O` [17 (Na), N-(3-Carboxyphenyl)-N'-[(6-chloro-1,2-dihydro-2-methyl-1-oxo-4-phenylisoquinolin-3-yl)methyl]urea sodium salt] gave a responders at 5 mg/kg ([1]; 8 h) of 67%.

`CCN(CC)Cc1cccc(NC(=O)NCc2c(-c3ccccc3)c3cc(Cl)ccc3c(=O)n2C)c1` [39 (HCl), N-[(6-Chloro-1,2-dihydro-2-methyl-1-oxo-4-phenylisoquinolin-3-yl)methyl]-N'-[3-(diethylaminomethyl)phenyl]urea] gave a responders at 5 mg/kg [1, 3] of 63%.

`Cn1c(CNC(=O)NCCCn2ccnc2)c(-c2ccccc2)c2cc(Cl)ccc2c1=O` [47 (HCl), N-[(6-Chloro-1,2-dihydro-2-methyl-1-oxo-4-phenylisoquinolin-3-yl)methyl]-N'-[3-(1-imidazolyl)propyl]urea] was tested, and the responders at 5 mg/kg [1, 3] was 75%.

Compound `CCNCc1cccc(NC(=O)NCc2c(-c3ccccc3)c3cc(Cl)ccc3c(=O)n2C)c1` [49 (HCl), N-[(6-Chloro-1,2-dihydro-2-methyl-1-oxo-4-phenylisoquinolin-3-yl)methyl]-N'-[3-(ethylaminomethyl)phenyl]urea hydrochloride] has a responders at 5 mg/kg [1, 3] of 88%.

`CN(C)Cc1cccc(NC(=O)NCc2c(-c3ccccc3)c3cc(Cl)ccc3c(=O)n2C)c1` [15 (HCl), N-[(6-Chloro-1,2-dihydro-2-methyl-1-oxo-4-phenylisoquinolin-3-yl)methyl]-N'-(3-N,N-dimethylaminomethylphenyl)urea hydrochloride] was tested, and the responders at 0.3 mg/kg [1, 4] was 80%, the responders at 5 mg/kg [1, 3] was 88% and the “H2O (water content of brain)” value ([2]; control 81.27 (Example 1), 80.94 (Example 15(HCl))) was 80.24 ± 0.23%. The “Na (sodium content of brain)” value ([2]; control 405 (Example 1), 371 (Example 15(HCl))) was 325 ± 17 mEq/kg and the “K (potassium content of brain)” value ([2]; control 430 (Example 1), 440 (Example 15(HCl))) was 466 ± 9 mEq/kg.

`CCN(CC)CCc1cccc(NC(=O)NCc2c(-c3ccccc3)c3cc(Cl)ccc3c(=O)n2C)c1` [41 (HCl), N-[(6-Chloro-1,2-dihydro-2-methyl-1-oxo-4-phenylisoquinolin-3-yl)methyl]-N'-{3-[2-(diethylamino)ethyl]phenyl}urea] was tested, and the responders at 0.3 mg/kg [1, 4] was 75% and the responders at 5 mg/kg [1, 3] was 88%.

`Cn1c(CNC(=O)Nc2ccc3c(c2)CCC3N)c(-c2ccccc2)c2cc(Cl)ccc2c1=O` (stereo not drawn) [50 (HCl), N-(1-Aminoindan-5-yl)-N'-[(6-chloro-1,2-dihydro-2-methyl-1-oxo-4-phenylisoquinolin-3-yl)methyl]urea hydrochloride] gave a responders at 5 mg/kg [1, 3] of 75%.

In the case of `CC(C)Oc1cccc(N(CC(=O)O)C(=O)NCc2c(-c3ccccc3)c3cc(Cl)ccc3c(=O)n2C)c1` [22 (Ma), N-Carboxymethyl-N'-[(6-chloro-1,2-dihydro-2-methyl-1-oxo-4-phenylisoquinolin-3-yl)methyl]-N-(3isopropoxyphenyl)urea sodium salt], the responders at 5 mg/kg ([1]; 8 h) is reported as 63%.

Work on `CNCc1cccc(NC(=O)NCc2c(-c3ccccc3)c3cc(Cl)ccc3c(=O)n2C)c1` [48 (HCl), N-[(6-Chloro-1,2-dihydro-2-methyl-1-oxo-4-phenylisoquinolin-3-yl)methyl]-N'-[3-(methylamino)methylphenyl]urea hydrochloride] yielded a responders at 5 mg/kg [1, 3] of 88%.

Compound `Cn1c(CNC(=O)Nc2cccc(CN)c2)c(-c2ccccc2)c2cc(Cl)ccc2c1=O` [51 (HCl), N-[3-(Aminomethyl)phenyl]-N'-[(6-chloro-1,2-dihydro-2-methyl-1-oxo-4-phenylisoquinolin-3-yl)methyl]urea hydrochloride] has a responders at 5 mg/kg [1, 3] of 100%.

With `CC(C)Oc1cccc(N(C)C(=O)N(C)Cc2c(-c3ccccc3)c3cc(Cl)ccc3c(=O)n2C)c1` [Example 24, N-[(6-Chloro-1,2-dihydro-2-methyl-1-oxo-4-phenylisoquinolin-3-yl)methyl]-N'-(3-isopropoxyphenyl)-N,N'-dimethylurea] the responders at 5 mg/kg [1, 3] was 75%.

Compound `CN(C)Cc1cccc(NC(=O)NCc2c(-c3ccc(F)cc3)c3ccccc3c(=O)n2C)c1` [53 (HCl), N-{[4-(4-Fluorophenyl)-1,2-dihydro-2-methyl-1-oxoisoquinolin-3-yl]methyl}-N'-[3-(dimethylaminomethyl)phenyl]urea hydrochloride] has a responders at 5 mg/kg [1, 3] of 75%.

With `Cn1c(CNC(=O)Nc2cccc(CN3CCCC3)c2)c(-c2ccccc2)c2cc(Cl)ccc2c1=O` [40 (HCl), N-[(6-Chloro-1,2-dihydro-2-methyl-1-oxo-4-phenylisoquinolin-3-yl)methyl]-N'-[3-(1-pyrrolidinomethyl)phenyl]urea] the responders at 5 mg/kg [1, 3] was 75%.

`CC(C)Oc1cccc(CC(=O)NCc2c(-c3ccccc3)c3cc(Cl)ccc3c(=O)n2C)c1` [Example 27, N-(6-Chloro-1,2-dihydro-2-methyl-1-oxo-4-phenylisoquinolin-3-yl)methyl-α-(3-isopropoxyphenyl)acetamide] showed a responders at 5 mg/kg [1, 3] of 88%.

`CN(C)c1cccc(NC(=O)NCc2c(-c3ccccc3)c3cc(Cl)ccc3c(=O)n2C)c1` [14 (HCl), N-[(6-Chloro-1,2-dihydro-2-methyl-1-oxo-4-phenylisoquinolin-3-yl)methyl]-N'-(3-N,N-dimethylaminophenyl)urea hydrochloride] was tested, and the responders at 5 mg/kg [1, 3] was 63%.

`CN(C)CCCc1cccc(NC(=O)NCc2c(-c3ccccc3)c3cc(Cl)ccc3c(=O)n2C)c1` [44 (HCl), N-[(6-Chloro-1,2-dihydro-2-methyl-1-oxo-4-phenylisoquinolin-3-yl)methyl]-N'-{3-[3-(dimethylamino)propyl]phenyl}urea] gave a responders at 5 mg/kg [1, 3] of 63%.

In the case of `CN(C)Cc1ccc(NC(=O)NCc2c(-c3ccccc3)c3cc(Cl)ccc3c(=O)n2C)cc1` [43 (HCl), N-[(6-Chloro-1,2-dihydro-2-methyl-1-oxo-4-phenylisoquinolin-3-yl)methyl]-N'-[4-(dimethylaminomethyl)phenyl]urea], the responders at 5 mg/kg [1, 3] is reported as 63%.

`CC(C)Oc1cccc(CC(=O)OCc2c(-c3ccccc3)c3cc(Cl)ccc3c(=O)n2C)c1` [Example 32, (6-Chloro-1,2-dihydro-2-methyl-1-oxo-4-phenylisoquinolin-3-yl)methyl α-(3-isopropoxyphenyl)acetate] gave a responders at 5 mg/kg [1, 3] of 63%.

`CC(C)Oc1cccc(NC(=O)NCc2c(-c3ccccc3)c3ccccc3c(=O)n2C)c1` [Example 16, N-[(1,2-Dihydro-2-methyl-1-oxo-4-phenylisoquinolin-3yl)methyl]-N'-(3-isopropoxyphenyl)urea] was tested, and the responders at 5 mg/kg [1, 3] was 88%.

`CC(C)Oc1cccc(OC(=O)NCc2c(-c3ccccc3)c3cc(Cl)ccc3c(=O)n2C)c1` [Example 29, 3-Isopropoxyphenyl N-[(6-chloro-1,2-dihydro-2-methyl-1-oxo-4-phenylisoquinolin-3-yl)methyl]carbamate] was tested, and the responders at 5 mg/kg ([1]; 8 h) was 75%.
